Source: US11752169B2, “Treatment of pain with polysulfated polysaccharides” (PARADIGM BIOPHARMACEUTICALS LTD., priority 2018, dated 2023)

Experiments:
proNGF = proNGF ELISA of culture supernatants of osteocyte-like cultures treated with rhTNF and PPS; type: cell-based, human
From the text: In order to maximise the clinical relevance of the findings from this study, the effects of PPS were to be tested on osteocyte-like cultures derived by differentiation in vitro for a period of 28 days from cells isolated from the subchondral bone of the proximal tibia of three patients with advanced knee OA who underwent total knee arthroplasty (TKA) surgery (KOA: Group 1). As a comparator group, cells isolated from the proximal femur of three patients who underwent total hip arthroplasty (THA) for neck of femur fracture (NOF: Group 2), were similarly differentiated and tested. […]
(§1) Cryopreserved cells from each donor (all at passage 0 or 1) were thawed and cultured for 10d in T75 cm^2 tissue culture flasks. Once confluent, cells were removed by collagenase/dispase digestion, washed by centrifugation, counted and adjusted to 5×10^5 cells/mL. […]
To examine further the effects of PPS on NGF expression, osteocyte-like cultures derived from three KOA and three NOF donor osteoblasts were treated after 3 days pre-treatment with differing concentrations of PPS, with rhTNFα in the absence or presence of the pre-treatment concentration of PPS. […] Therefore, in this study proNGF levels were also measured in the treated supernatants, as described in Materials and Methods.

NGF = test: human NGF ELISA of culture supernatants of osteocyte-like cultures; type: cell-based; settings: KOA or NOF osteocyte-like cultures, PPS 1, 5 or 50 μg/mL for 72 h vs untreated
From the text: In order to maximise the clinical relevance of the findings from this study, the effects of PPS were to be tested on osteocyte-like cultures derived by differentiation in vitro for a period of 28 days from cells isolated from the subchondral bone of the proximal tibia of three patients with advanced knee OA who underwent total knee arthroplasty (TKA) surgery (KOA: Group 1). As a comparator group, cells isolated from the proximal femur of three patients who underwent total hip arthroplasty (THA) for neck of femur fracture (NOF: Group 2), were similarly differentiated and tested. The gender of all donors was female, and group were age matched, with the mean age of KOA being 77.0±8.5 years and that of the NOF group being 77.7±5.5 years (p=0.91).
as §1, with “cells/mL. Cells were then seeded into either 12-well tissue culture trays or into 8-well chamber slides, at 1×10^5 and 2×10^4 cells/well, respectively.” for “cells/mL.”

[1] = volunteers injected subcutaneously with PPS; cited from earlier work
IL-6 mRNA = test: real-time RT-PCR for IL-6 mRNA in KOA osteocyte-like cultures; type: cell-based, human; settings: PPS 1 μg/mL + rhTNFα 1 ng/mL, 48 h (FIG. 17)
Procedure: Cryopreserved cells from each donor (all at passage 0 or 1) were thawed and cultured for 10d in T75 cm^2 tissue culture flasks. Once confluent, cells were removed by collagenase/dispase digestion, washed by centrifugation, counted and adjusted to 5×10^5 cells/mL. Cells were then seeded into either 12-well tissue culture trays or into 8-well chamber slides, at 1×10^5 and 2×10^4 cells/well, respectively. After 24 h, media were replaced with osteogenic differentiation medium, consisting of αMEM, 5% v/v foetal calf serum (FCS), 1.8 mM potassium dihydrogen phosphate (KH2PO4), 100 μM Ascorbate-2-phosphate (As2P), 10 mM HEPES, 10^−8 M Dexamethasone and 0.2 mM L-Glutamine. During the differentiation process, samples were collected at days 3, 14 and 28 in Trizol reagent for total RNA preparation and gene expression analysis (see below). […]
Following three days of pre-treatment of osteocyte-like cultures with PPS and a further 48 h treatment period, total RNA was isolated for the purposes of analysing gene expression using real-time RT-PCR. While the quality of the RNA isolated from all cultures appeared to be high, as adjudged by Nanodrop micro-spectrophotometry showing the ratio of absorbance at 260 nm/280 nm generally being between 1.9 and 2.0, there was a consistent inability to generate complementary DNA (cDNA) from any samples exposed to 5 or 50 μg/mL PPS, except in one or two samples. […]

For Sodium Pentosan Polysulfate [PPS], the “effect of rhTNF on proNGF secretion” value (proNGF; KOA and NOF cultures, rhTNFα 1 ng/mL 48 h after 3 days PPS pre-treatment, all PPS concentrations tested) was “strongly reversed”, the “basal proNGF secretion” value (proNGF; all donors' cells (KOA and NOF), all PPS concentrations tested (1, 5, 50 μg/mL)) was “strongly suppressed” and the “secreted levels of mature NGF protein (ELISA)” value (NGF) was “increased”. For the same substance, the “plasma concentrations of PPS” value [1] was 1000 to 3000 ng/mL and the “effect of rhTNFα on IL-6 mRNA expression” value (IL-6 mRNA) was “inhibited”.
